Experimental data: article PMC10874388, “Cyclic peptides discriminate BCL-2 and its clinical mutants from BCL-XL by engaging a single-residue discrepancy” (Nature Communications, 2024)
“And” between values parts separate entries of the source, which are not always exact repeats. Identical values can stand only once.

Assays:
Type in all cases: cell-based
Daudi cells = assay: Cell viability assay (CellTiter-Glo), Daudi; conditions: Daudi
Procedure: (§1) The cell lines Jurkat (TIB-152), El4 (TIB-39), Daudi (ccl-213), RS4:11 (crl-1873), A549 (ccl-185), HepG2 (hb-8065) and PANC-1 (crl-1469) were purchased from ATCC (American Type Culture Collection), and MGC-803 (C6582) was purchased from Beyotime (https://www.beyotime.com/product/C6582.htm). […] Daudi and RS4:11 cells were cultured in RPMI-1640 medium (HyClone, SH30809.01) and 10% FBS (Gibco, 10099-141), whereas HepG2, MGC-803 and PANC-1 cells were cultured in MDEM (HyClone, SH30243.01). Cells were maintained at 37 °C under a humidified, 5% (v/v) CO2-containing atmosphere.
(§2) Cell viability was measured using CellTiter-Glo® 2.0 Reagent (Promega, G9242). […] After different inhibitors were added into serum-free medium and cultured for 4 h (RS4:11 for 6 h), FBS were supplemented to 10% and then incubated totally for 24 h or 48 h. Finally, the IC50 values were calculated based on measurements using a microplate reader (Thermo, Varioskan LUX). Statistical analysis was performed using software GraphPad Prism 7.0.

Jurkat cells = assay: Cell viability assay (CellTiter-Glo), Jurkat
Procedure: as §1, §2

RS4:11 cells = assay: Cell viability assay (CellTiter-Glo), RS4:11; conditions: single wells; for raw luminescence reading / inhibition rate: RS4:11
Procedure: as §1, §2

CC1(C)CCC(c2ccc(Cl)cc2)=C(CN2CCN(c3ccc(C(=O)NS(=O)(=O)c4ccc(N[C@H](CCN5CCOCC5)CSc5ccccc5)c(S(=O)(=O)C(F)(F)F)c4)cc3)CC2)C1 [ABT263]
inhibition relative to 0 uM control, replicates (Daudi cells; 0.78125 uM): -13% and 6.58% and 11% and 14% and -14% and 9%
raw viability signal, replicates (Daudi cells; 0.78125 uM): 1671 and 1386 and 1318 and 1281 and 1698 and 1345
inhibition relative to 0 uM control, replicates (Daudi cells; 1.5625 uM): 12% and 28% and 13% and 5% and 2.67% and -0.427%
raw viability signal, replicates (Daudi cells; 1.5625 uM): 1303 and 1062 and 1294 and 1413 and 1444 and 1490
inhibition relative to 0 uM control, replicates (Daudi cells; 3.125 uM): 25% and 4% and 5% and 17% and 29% and 48%
raw viability signal, replicates (Daudi cells; 3.125 uM): 1117 and 1426 and 1406 and 1238 and 1059 and 765.3
inhibition relative to 0 uM control, replicates (Daudi cells; 6.25 uM): 51% and 31% and 24% and 23% and 20% and 40%
raw viability signal, replicates (Daudi cells; 6.25 uM): 729.7 and 1018 and 1129 and 1147 and 1185 and 883.7
inhibition relative to 0 uM control, replicates (Daudi cells; 12.5 uM): 38% and 61% and 46% and 56% and 44% and 48%
raw viability signal, replicates (Daudi cells; 12.5 uM): 920.2 and 574.4 and 802.0 and 653.5 and 827.6 and 767.5
inhibition relative to 0 uM control, replicates (Daudi cells; 25 uM): 71% and 70% and 63% and 61% (2×) and 82%
raw viability signal, replicates (Daudi cells; 25 uM): 436.2 and 441.9 and 545.0 and 582.0 and 581.4 and 260.8
inhibition relative to 0 uM control, replicates (Jurkat cells; 0.375 uM): 36% and 32% (2×) and 29% and 31%
raw viability signal, replicates (Jurkat cells; 0.375 uM): 1239000 and 1266000 and 1356000 and 1351000 and 1403000 and 1379000
inhibition relative to 0 uM control, replicates (Jurkat cells; 0.75 uM): 33% and 36% and 41%
raw viability signal, replicates (Jurkat cells; 0.75 uM): 1132000 and 1330000 and 1241000 and 1225000 and 1265000 and 1179000
inhibition relative to 0 uM control, replicates (Jurkat cells; 1.5 uM): 44% and 41% and 40% and 37% and 34%
raw viability signal, replicates (Jurkat cells; 1.5 uM): 1078000 and 1124000 and 1172000 and 1189000 and 1263000 and 1304000
inhibition relative to 0 uM control, replicates (Jurkat cells; 3 uM): 44% and 39% and 40%
raw viability signal, replicates (Jurkat cells; 3 uM): 1152000 and 1105000 and 1149000 and 1214000 and 1192000 and 1143000
inhibition relative to 0 uM control, replicates (Jurkat cells; 6 uM): 47% and 44% and 41%
raw viability signal, replicates (Jurkat cells; 6 uM): 1071000 and 1059000 and 1122000 and 1132000 and 1181000 and 1149000
inhibition relative to 0 uM control, replicates (Jurkat cells; 12 uM): 60% and 56% and 54% and 53%
raw viability signal, replicates (Jurkat cells; 12 uM): 855500 and 799300 and 877600 and 917700 and 934900 and 865100
inhibition at 0.375 µM (Jurkat cells; Homo sapiens, 0.375 uM, read-out: inhibition relative to 0 uM control, replicates): 38%
inhibition at 0.75 µM (Jurkat cells; Homo sapiens, 0.75 uM, read-out: inhibition relative to 0 uM control, replicates): 43%
inhibition at 1.5 µM (Jurkat cells; Homo sapiens, 1.5 uM, read-out: inhibition relative to 0 uM control, replicates): 46%
inhibition at 3 µM (Jurkat cells; Homo sapiens, 3 uM, read-out: inhibition relative to 0 uM control, replicates): 42%
inhibition at 6 µM (Jurkat cells; Homo sapiens, 6 uM, read-out: inhibition relative to 0 uM control, replicates): 46%
inhibition at 12 µM (Jurkat cells; Homo sapiens, 12 uM, read-out: inhibition relative to 0 uM control, replicates): 57%
inhibition at 0.000488281 µM (RS4:11 cells; Homo sapiens, RS4-11, RS4:11, 0.488281 nM, read-out: inhibition rate): 67%
inhibition at 0.000976562 µM (RS4:11 cells; Homo sapiens, RS4-11, RS4:11, 0.976562 nM, read-out: inhibition rate): 81%
inhibition at 0.00195312 µM (RS4:11 cells; Homo sapiens, RS4-11, RS4:11, 1.95312 nM, read-out: inhibition rate): 97%
inhibition at 0.00390625 µM (RS4:11 cells; Homo sapiens, RS4-11, RS4:11, 3.90625 nM, read-out: inhibition rate): 99%
inhibition at 0.0078125 µM (RS4:11 cells; Homo sapiens, RS4-11, RS4:11, 7.8125 nM, read-out: inhibition rate): 100%
inhibition at 0.015625 µM (RS4:11 cells; Homo sapiens, RS4-11, RS4:11, 15.625 nM, read-out: inhibition rate): 100%
inhibition at 0.03125 µM (RS4:11 cells; Homo sapiens, RS4-11, RS4:11, 31.25 nM, read-out: inhibition rate): 100%
inhibition at 0.0625 µM (RS4:11 cells; Homo sapiens, RS4-11, RS4:11, 62.5 nM, read-out: inhibition rate): 100%
inhibition at 0.125 µM (RS4:11 cells; Homo sapiens, RS4-11, RS4:11, 125 nM, read-out: inhibition rate): 100%
inhibition at 0.25 µM (RS4:11 cells; Homo sapiens, RS4-11, RS4:11, 250 nM, read-out: inhibition rate): 100%
inhibition at 0.5 µM (RS4:11 cells; Homo sapiens, RS4-11, RS4:11, 500 nM, read-out: inhibition rate): 100%
inhibition at 1 µM (RS4:11 cells; Homo sapiens, RS4-11, RS4:11, 1000 nM, read-out: inhibition rate): 100%
raw luminescence reading (RS4:11 cells; 0.244141 nM): 319400 and 358600 and 385500 and 388700 and 346000 and 423800
raw luminescence reading (RS4:11 cells; 0.488281 nM): 145900 and 162000 and 168900 and 156800 and 153400 and 152700
inhibition rate (RS4:11 cells; 0.488281 nM, 0.000488281 µM): 63% and 62% and 65% and 66%
raw luminescence reading (RS4:11 cells; 0.976562 nM): 85360 and 92040 and 97200 and 90740 and 85390 and 85400
inhibition rate (RS4:11 cells; 0.976562 nM, 0.000976562 µM): 79% and 78% and 80%
raw luminescence reading (RS4:11 cells; 1.95312 nM): 14920 and 16290 and 16450 and 15190 and 15570 and 13650
inhibition rate (RS4:11 cells; 1.95312 nM, 0.00195312 µM): 96%
raw luminescence reading (RS4:11 cells; 3.90625 nM): 2969 and 3143 and 3110 and 2929 and 2545 and 2763
raw luminescence reading (RS4:11 cells; 7.8125 nM): 1394 and 1471 and 1609 and 1459 and 1530 and 1294
raw luminescence reading (RS4:11 cells; 15.625 nM): 649.5 and 693.0 and 701.2 and 740.3 and 855.6 and 501.0
raw luminescence reading (RS4:11 cells; 31.25 nM): 598.7 and 870.6 and 1121 and 921.5 and 938.2 and 1010
raw luminescence reading (RS4:11 cells; 62.5 nM): 361.9 and 494.9 and 587.5 and 446.2 and 364.9 and 488.9
raw luminescence reading (RS4:11 cells; 125 nM): 503.8 and 401.2 and 517.1 and 644.2 and 454.2 and 588.4
raw luminescence reading (RS4:11 cells; 250 nM): 1061 and 1147 and 1486 and 1266 and 1158 and 1293
raw luminescence reading (RS4:11 cells; 500 nM): 507.0 and 488.7 and 440.9 and 484.8 and 485.1 and 504.0
raw luminescence reading (RS4:11 cells; 1000 nM): 274.1 and 376.6 and 535.0 and 446.7 and 313.0 and 467.2
